These results are taken from ChEMBL document CHEMBL1144130, “11-Deoxyfistularin-3, a new cytotoxic metabolite from the caribbean sponge Aplysina fistularis insularis” (1999).

Common to all, as to assay type: functional
In one test the test system is HeLa. Description: Cytotoxicity against human HeLa cells after 96 hrs by MTT assay. The note with it: read-out: LD50 (the source's name).
The subject of a further test is MCF7. Description: Cytotoxicity against human MCF7 cells after 96 hrs by MTT assay. The following applies: MCF7, 96 h, read-out: LD50 (the source's name).
The next test deals with LoVo. Description: Cytotoxicity against human LoVo cells after 96 hrs by MTT assay. The note with it: read-out: LD50 (the source's name).
For another test, the system named is RD. Description: Cytotoxicity against human RD cells after 96 hrs by MTT assay. The following applies: read-out: LD50 (the source's name).
In the next test the test system is HEp-2. The experiment in a line: Cytotoxicity against human Hep2 cells after 96 hrs by MTT assay. The following applies: HEp-2, 96 h, read-out: LD50 (the source's name).
Test [1] is described as follows: Cytotoxicity against human XL17 cells after 96 hrs by MTT assay. The note with it: XL17, 96 h, read-out: LD50 (the source's name).

Converted amounts (≈) assume the structure as drawn.

As for `COC1=C(Br)[C@H](O)[C@@]2(C=C1Br)CC(C(=O)NCCCOc1c(Br)cc(C(O)CNC(=O)C3=NO[C@]4(C=C(Br)C(OC)=C(Br)[C@@H]4O)C3)cc1Br)=NO2` (stereo partly specified), the CC50 was 17 µg/mL (≈ 15.5 µM) in the test with HeLa; over 50 µg/mL with MCF7; 17 µg/mL (≈ 15.5 µM) in the test with LoVo; 17 µg/mL (≈ 15.5 µM) with RD; 17 µg/mL (≈ 15.5 µM) with HEp-2; 17 µg/mL (≈ 15.5 µM) in test [1].
